# Measurements as given in patent US10329317B2, “Quinoline derivative for use in the treatment and prevention of viral infections” (ABIVAX, priority 2015, dated 2019).
# Read-outs that look alike come from different tables or passages of the source.
# Tests used:
# [1] = First-in-man PK: compound (1) plasma levels after single oral ascending dose of compound (2); assay type: in vivo, human; conditions: for AUC(0-t) / AUC(0-inf) / Cmax / half-life / Tmax: male, human, plasma; for AUC(0-t) / AUC(0-inf) / Cmax / half-life: po; for Tmax: read-out: tmax, median
# Experimental: The present document details the pharmacokinetic (PK) results obtained in a first-in-man study with compound (2) consisting in a single oral ascending dose in healthy male subjects. Four (4) dose levels were investigated (50, 100, 150, and 200 mg).
# At each dose level, 6 subjects were included and received a single oral dose of compound (2) so that a total of 24 subjects participated to the study and completed it. No study deviation was identified at the time of the PK analysis and thus, all subjects were included in the PK analysis.
# In this study, plasma levels of compound (1) were measured.
# PK blood sampling was initially defined up to 48 h post-dose.
# Blood samples for assessment of compound (1) plasma levels are scheduled at the following time points: • Day 1 pre-dose, 0.33, 0.66, 1.00, 1.50, 2.00, 2.50, 3.00, 4.00, 6.00, 8.00, 10.00, and 12.00 h post-dose; • Day 2 24.00 and 36.00 h post-dose; • Day 3 48.00 h post-dose; • Day 10 240 h post-dose; • Day 24 576 h post-dose; • Day 45 1080 h post-dose.
# Plasma concentrations were processed throughout the PK software for PK data generation. The PK parameters were calculated by non-compartmental analysis (NCA), using Phoenix® WinNonlin® (Pharsight Corporation) running on a personal computer.
# For the calculation of the PK parameters and characteristics the following rules were applied: • All the plasma concentrations validated provided to the pharmacokineticist were used for the PK analysis. • The actual blood sampling time points related to the preceding administration was used. • At time points in the lag-time between time zero and the first concentration equal or above limit of quantification (LOQ), concentrations below LOQ were set to zero (0). Concentrations below limit of quantification (BLOQ) between 2 concentrations equal or above LOQ were considered as missing data. Trailing concentrations BLOQ were used in calculations. • If pre-dose concentration was missing, it was arbitrary set to zero (0) assuming that expected results would have been BLOQ.
# For each subject receiving the active treatment in each cohort, the following PK parameters of compound (1) were to be derived:
# Cmax The observed maximum concentration measured in plasma was obtained directly from the concentration-time data.
# tmax The time at which Cmax was apparent, identified by inspection of the plasma drug concentration vs. time data by Phoenix® WinNonlin®.
# AUC0-t The area under the concentration-time curve from time zero (pre-dose) to the time of last quantifiable concentration was calculated using a linear trapezoidal method.
# ke The terminal plasma elimination rate-constant was estimated from log-linear regression analysis of the terminal phase of the plasma concentration-time profile. The number of points included in the terminal phase was determined by visual inspection of the semi-log plots of the plasma concentration-time profiles (at least 3). AUC0-∞ The AUC from time 0 to infinity was calculated as AUC0-∞=AUC0-t+AUCt-∞, where AUC0-t is the area under the concentration-time curve from time zero (pre-dose) to the time of last quantifiable concentration calculated using a […] trapezoidal method and AUCt-∞=Ct/ke, where Ct is the measured concentration at time of the last quantifiable concentration t. The extrapolated part of AUC0-∞ must be <20% for the value to be considered as reliable. t1/2 The apparent terminal elimination half-life was calculated as ln 2/ke, where ke is the elimination rate constant during the terminal phase determined by the log-linear regression obtained on at least the 3 last quantifiable concentrations and using actual blood sampling times. The correlation coefficient for the goodness of the fit of the regression line through the data points must be 0.8500 or higher, for the value to be considered reliable.
# HIV-1 strain YU2 = experiment: HIV-1 production (p24 ELISA) in infected monocyte derived macrophages; assay type: cell-based
# Experimental: HIV-1 strain YU2 was used to infect monocyte derived-macrophages from three different donors (donors 349, 350 and 351; respectively FIGS. 2A, 2B, and 2C panel) in the presence of increasing concentrations of the (glucuronidated) Compound 1, at 1.5 μM, 10 μM and 30 μM. The viral capsid protein p24 antigen was quantitated using standard ELISA protocol (expressed in pg/mL in y-axis). R-10 corresponds to untreated cells. […] To generate monocyte derived macrophages (MDMs), monocytes were isolated using CD14 microbeads (catalog no. 130-050-201; Miltenyi) and cultured in X-VIVO10 medium (Lonza) supplemented with GM-CSF 1000 U/ml and M-CSF 100 ng/ml for 6 days. Monocytes were seeded at a cell count of 50′000 cells per well in a 96 well plate. After 6 days medium was replaced with X-VIVO10 w/o Cytokines. After 2 days Macrophages were treated with Compound (1) o/n and next day infected with Yu-2 virus for 6 hrs, washed with PBS and cultured in medium containing the compounds for 12 days. Supernatant for p24 Elisa was collected 2 times a week. Cells were treated with 1.5 μM up to 30 μM and p24 antigen levels were monitored in culture supernatant over a 12 day period (R-10 corresponds to untreated cells) (FIG. 2).
# [2] = Solubility compared with Compound 2 (statement only); assay type: physicochemical
compound,measurement,setting,value
"O=C(O)[C@H]1O[C@@H](N(c2ccc(OC(F)(F)F)cc2)c2ccc3cccc(Cl)c3n2)[C@H](O)[C@@H](O)[C@@H]1O [Compound 1, N-β-glucuronide of 8-chloro-N-(4-(trifluoromethoxy)phenyl)quinolin-2-amine]",compound (1) plasma concentrations versus parent drug,"[1]; after single oral compound (2), regardless of the dose",markedly higher
same,AUC(0-t),"[1]; 50 mg, 50 mg compound (2) single oral, N=6, read-out: AUC0-t, GM (geometric mean)",196 µg·h/mL
same,AUC(0-t),"[1]; 50 mg, 50 mg compound (2) single oral, N=6, read-out: AUC0-t, Mean",209 µg·h/mL
same,AUC(0-inf),"[1]; 50 mg, 50 mg compound (2) single oral, N=6, read-out: AUC0-∞, GM (geometric mean)",198 µg·h/mL
same,AUC(0-inf),"[1]; 50 mg, 50 mg compound (2) single oral, N=6, read-out: AUC0-∞, Mean",212 µg·h/mL
same,Cmax,"[1]; 50 mg, 50 mg compound (2) single oral, N=6, read-out: Cmax, GM (geometric mean)",2540 ng/mL
same,Cmax,"[1]; 50 mg, 50 mg compound (2) single oral, N=6, read-out: Cmax, Mean",2630 ng/mL
same,half-life,"[1]; 50 mg, 50 mg compound (2) single oral, N=6, read-out: t1/2, GM (geometric mean) (converted)",95.7 h
same,half-life,"[1]; 50 mg, 50 mg compound (2) single oral, N=6, read-out: t1/2, Mean (converted)",97.3 h
same,AUC(0-t),"[1]; 100 mg, 100 mg compound (2) single oral, N=6, read-out: AUC0-t, GM (geometric mean)",468 µg·h/mL
same,AUC(0-t),"[1]; 100 mg, 100 mg compound (2) single oral, N=6, read-out: AUC0-t, Mean",499 µg·h/mL
same,AUC(0-inf),"[1]; 100 mg, 100 mg compound (2) single oral, N=6, read-out: AUC0-∞, GM (geometric mean)",476 µg·h/mL
same,AUC(0-inf),"[1]; 100 mg, 100 mg compound (2) single oral, N=6, read-out: AUC0-∞, Mean",505 µg·h/mL
same,Cmax,"[1]; 100 mg, 100 mg compound (2) single oral, N=6, read-out: Cmax, GM (geometric mean)",5400 ng/mL
same,Cmax,"[1]; 100 mg, 100 mg compound (2) single oral, N=6, read-out: Cmax, Mean",5720 ng/mL
same,half-life,"[1]; 100 mg, 100 mg compound (2) single oral, N=6, read-out: t1/2, GM (geometric mean) (converted)",111 h
same,half-life,"[1]; 100 mg, 100 mg compound (2) single oral, N=6, read-out: t1/2, Mean (converted)",111 h
same,AUC(0-t),"[1]; 150 mg, 150 mg compound (2) single oral, N=6, read-out: AUC0-t, GM (geometric mean)",560 µg·h/mL
same,AUC(0-t),"[1]; 150 mg, 150 mg compound (2) single oral, N=6, read-out: AUC0-t, Mean",659 µg·h/mL
same,AUC(0-inf),"[1]; 150 mg, 150 mg compound (2) single oral, N=6, read-out: AUC0-∞, GM (geometric mean)",563 µg·h/mL
same,AUC(0-inf),"[1]; 150 mg, 150 mg compound (2) single oral, N=6, read-out: AUC0-∞, Mean",664 µg·h/mL
same,Cmax,"[1]; 150 mg, 150 mg compound (2) single oral, N=6, read-out: Cmax, GM (geometric mean)",8270 ng/mL
same,Cmax,"[1]; 150 mg, 150 mg compound (2) single oral, N=6, read-out: Cmax, Mean",9240 ng/mL
same,half-life,"[1]; 150 mg, 150 mg compound (2) single oral, N=6, read-out: t1/2, GM (geometric mean) (converted)",95.7 h
same,half-life,"[1]; 150 mg, 150 mg compound (2) single oral, N=6, read-out: t1/2, Mean (converted)",99.2 h
same,AUC(0-t),"[1]; 200 mg, 200 mg compound (2) single oral, N=6, read-out: AUC0-t, GM (geometric mean)",436 µg·h/mL
same,AUC(0-t),"[1]; 200 mg, 200 mg compound (2) single oral, N=6, read-out: AUC0-t, Mean",559 µg·h/mL
same,AUC(0-inf),"[1]; 200 mg, 200 mg compound (2) single oral, N=6, read-out: AUC0-∞, GM (geometric mean)",438 µg·h/mL
same,AUC(0-inf),"[1]; 200 mg, 200 mg compound (2) single oral, N=6, read-out: AUC0-∞, Mean",560 µg·h/mL
same,Cmax,"[1]; 200 mg, 200 mg compound (2) single oral, N=6, read-out: Cmax, GM (geometric mean)",5900 ng/mL
same,Cmax,"[1]; 200 mg, 200 mg compound (2) single oral, N=6, read-out: Cmax, Mean",7910 ng/mL
same,half-life,"[1]; 200 mg, 200 mg compound (2) single oral, N=6, read-out: t1/2, GM (geometric mean) (converted)",87.8 h
same,half-life,"[1]; 200 mg, 200 mg compound (2) single oral, N=6, read-out: t1/2, Mean (converted)",89.5 h
same,half-life,"[1]; healthy male subjects, single oral 50 to 200 mg compound (2), read-out: elimination half life (t1/2) (converted)",~100 h
same,Tmax,"[1]; 50 mg compound (2) single oral, N=6",4 h
same,Tmax,"[1]; 100 mg compound (2) single oral, N=6",4 h
same,Tmax,"[1]; 150 mg compound (2) single oral, N=6",4 h
same,Tmax,"[1]; 200 mg compound (2) single oral, N=6",6 h
same,time of first quantifiable compound (1) concentration,"[1]; post-dose, 20 subjects out of 24",~40 min
same,inhibition at 30 µM,"HIV-1 strain YU2; Human immunodeficiency virus 1, Primary macrophage, 288 h, primary macrophages, 30 μM, 12 day period, read-out: inhibition of virus replication (p24 antigen in culture supernatant)",≤ 60%
same,toxicity,"HIV-1 strain YU2; macrophages, 1.5 μM up to 30 μM",low toxicity
same,solubility relative to Compound 2,[2],more soluble
